Test results published in the CheMixHub viscosity set.
± gives the uncertainty stated by the source.

Assay: xn = mol fraction of the nth substance listed
Conditions: 101.33 kPa

For `NCc1ccccc1` + CCC(C)(C)O, which viscosity (298.15 K, x1 = 0.1) is on record?
Its viscosity is 3.228 ± 0.041 mPa·s.

What about the viscosity (298.15 K, x1 = 0.2001) of the same compound?
Its viscosity is 2.988 ± 0.038 mPa·s.

And the viscosity (298.15 K, x1 = 0.3)?
Its viscosity is 2.781 ± 0.036 mPa·s.

What about the viscosity (298.15 K, x1 = 0.4) of the same compound?
The viscosity was 2.576 ± 0.033 mPa·s.

And the viscosity (298.15 K, x1 = 0.5)?
Its viscosity is 2.394 ± 0.03 mPa·s.

And the viscosity (298.15 K, x1 = 0.6)?
The viscosity was 2.223 ± 0.028 mPa·s.

And the viscosity (298.15 K, x1 = 0.6999)?
The viscosity was 2.067 ± 0.026 mPa·s.

And the viscosity (298.15 K, x1 = 0.7994)?
Its viscosity is 1.927 ± 0.024 mPa·s.

And the viscosity (298.15 K, x1 = 0.8998)?
The viscosity was 1.792 ± 0.022 mPa·s.

What about the viscosity (303.15 K, x1 = 0.1) of the same compound?
Its viscosity is 2.641 ± 0.034 mPa·s.

And the viscosity (303.15 K, x1 = 0.2001)?
Its viscosity is 2.463 ± 0.032 mPa·s.

And the viscosity (303.15 K, x1 = 0.3)?
Its viscosity is 2.289 ± 0.03 mPa·s.

And the viscosity (303.15 K, x1 = 0.4)?
The viscosity was 2.143 ± 0.028 mPa·s.

And the viscosity (303.15 K, x1 = 0.5)?
Its viscosity is 1.995 ± 0.026 mPa·s.

And the viscosity (303.15 K, x1 = 0.6)?
Its viscosity is 1.882 ± 0.024 mPa·s.

And the viscosity (303.15 K, x1 = 0.6999)?
The viscosity was 1.773 ± 0.022 mPa·s.

What about the viscosity (303.15 K, x1 = 0.7994) of the same compound?
The viscosity was 1.668 ± 0.021 mPa·s.

And the viscosity (303.15 K, x1 = 0.8998)?
Its viscosity is 1.578 ± 0.019 mPa·s.

And the viscosity (308.15 K, x1 = 0.1)?
The viscosity was 2.193 ± 0.029 mPa·s.

And the viscosity (308.15 K, x1 = 0.2001)?
Its viscosity is 2.043 ± 0.027 mPa·s.

And the viscosity (308.15 K, x1 = 0.3)?
The viscosity was 1.919 ± 0.025 mPa·s.

What about the viscosity (308.15 K, x1 = 0.4) of the same compound?
Its viscosity is 1.793 ± 0.023 mPa·s.

What about the viscosity (308.15 K, x1 = 0.5) of the same compound?
The viscosity was 1.696 ± 0.022 mPa·s.

What about the viscosity (308.15 K, x1 = 0.6) of the same compound?
The viscosity was 1.609 ± 0.021 mPa·s.

And the viscosity (308.15 K, x1 = 0.6999)?
Its viscosity is 1.533 ± 0.019 mPa·s.

And the viscosity (308.15 K, x1 = 0.7994)?
The viscosity was 1.468 ± 0.018 mPa·s.

What about the viscosity (308.15 K, x1 = 0.8998) of the same compound?
Its viscosity is 1.422 ± 0.018 mPa·s.

What does the source list for `NCc1ccccc1` + CCC(C)CO?
viscosity (298.15 K, x1 = 0.1): 4.232 ± 0.059 mPa·s; viscosity (298.15 K, x1 = 0.2): 3.772 ± 0.052 mPa·s; viscosity (298.15 K, x1 = 0.3001): 3.382 ± 0.047 mPa·s; viscosity (298.15 K, x1 = 0.3999): 3.039 ± 0.041 mPa·s; viscosity (298.15 K, x1 = 0.5): 2.708 ± 0.036 mPa·s; viscosity (298.15 K, x1 = 0.6): 2.435 ± 0.032 mPa·s; viscosity (298.15 K, x1 = 0.6998): 2.181 ± 0.028 mPa·s; viscosity (298.15 K, x1 = 0.7989): 1.984 ± 0.025 mPa·s; viscosity (298.15 K, x1 = 0.8999): 1.796 ± 0.022 mPa·s; viscosity (303.15 K, x1 = 0.1): 3.472 ± 0.052 mPa·s; viscosity (303.15 K, x1 = 0.2): 3.103 ± 0.046 mPa·s; viscosity (303.15 K, x1 = 0.3001): 2.773 ± 0.04 mPa·s; viscosity (303.15 K, x1 = 0.3999): 2.478 ± 0.036 mPa·s; viscosity (303.15 K, x1 = 0.5): 2.243 ± 0.031 mPa·s; viscosity (303.15 K, x1 = 0.6): 2.048 ± 0.028 mPa·s; viscosity (303.15 K, x1 = 0.6998): 1.849 ± 0.025 mPa·s; viscosity (303.15 K, x1 = 0.7989): 1.691 ± 0.022 mPa·s; viscosity (303.15 K, x1 = 0.8999): 1.572 ± 0.02 mPa·s; viscosity (308.15 K, x1 = 0.1): 2.453 ± 0.043 mPa·s; viscosity (308.15 K, x1 = 0.2): 2.227 ± 0.038 mPa·s; viscosity (308.15 K, x1 = 0.3001): 2.02 ± 0.033 mPa·s; viscosity (308.15 K, x1 = 0.3999): 1.837 ± 0.029 mPa·s; viscosity (308.15 K, x1 = 0.5): 1.711 ± 0.026 mPa·s; viscosity (308.15 K, x1 = 0.6): 1.595 ± 0.023 mPa·s; viscosity (308.15 K, x1 = 0.6998): 1.5 ± 0.021 mPa·s; viscosity (308.15 K, x1 = 0.7989): 1.423 ± 0.019 mPa·s; viscosity (308.15 K, x1 = 0.8999): 1.377 ± 0.017 mPa·s

Which results are given for `NCc1ccccc1` + CCCC(C)O?
viscosity (298.15 K, x1 = 0.1): 3.179 ± 0.044 mPa·s; viscosity (298.15 K, x1 = 0.2002): 2.906 ± 0.04 mPa·s; viscosity (298.15 K, x1 = 0.3001): 2.676 ± 0.037 mPa·s; viscosity (298.15 K, x1 = 0.4001): 2.466 ± 0.033 mPa·s; viscosity (298.15 K, x1 = 0.4997): 2.274 ± 0.03 mPa·s; viscosity (298.15 K, x1 = 0.6): 2.11 ± 0.028 mPa·s; viscosity (298.15 K, x1 = 0.6989): 1.976 ± 0.026 mPa·s; viscosity (298.15 K, x1 = 0.8): 1.854 ± 0.024 mPa·s; viscosity (298.15 K, x1 = 0.8998): 1.75 ± 0.022 mPa·s; viscosity (303.15 K, x1 = 0.1): 2.626 ± 0.037 mPa·s; viscosity (303.15 K, x1 = 0.2002): 2.395 ± 0.033 mPa·s; viscosity (303.15 K, x1 = 0.3001): 2.192 ± 0.03 mPa·s; viscosity (303.15 K, x1 = 0.4001): 2.038 ± 0.028 mPa·s; viscosity (303.15 K, x1 = 0.4997): 1.893 ± 0.025 mPa·s; viscosity (303.15 K, x1 = 0.6): 1.765 ± 0.023 mPa·s; viscosity (303.15 K, x1 = 0.6989): 1.666 ± 0.022 mPa·s; viscosity (303.15 K, x1 = 0.8): 1.587 ± 0.02 mPa·s; viscosity (303.15 K, x1 = 0.8998): 1.532 ± 0.019 mPa·s; viscosity (308.15 K, x1 = 0.1): 2.199 ± 0.031 mPa·s; viscosity (308.15 K, x1 = 0.2002): 2.034 ± 0.028 mPa·s; viscosity (308.15 K, x1 = 0.3001): 1.884 ± 0.026 mPa·s; viscosity (308.15 K, x1 = 0.4001): 1.759 ± 0.024 mPa·s; viscosity (308.15 K, x1 = 0.4997): 1.642 ± 0.022 mPa·s; viscosity (308.15 K, x1 = 0.6): 1.559 ± 0.02 mPa·s; viscosity (308.15 K, x1 = 0.6989): 1.482 ± 0.019 mPa·s; viscosity (308.15 K, x1 = 0.8): 1.436 ± 0.018 mPa·s; viscosity (308.15 K, x1 = 0.8998): 1.401 ± 0.017 mPa·s
